The results in this text go back to ChEMBL document CHEMBL2146414, “Lignan derivatives from Krameria lappacea roots inhibit acute inflammation in vivo and pro-inflammatory mediators in vitro” (J Nat Prod, 2011).

One assay addresses T1, Prostaglandin E synthase (Homo sapiens, UniProt O14684).
T1 sequence (O14684 whole entry): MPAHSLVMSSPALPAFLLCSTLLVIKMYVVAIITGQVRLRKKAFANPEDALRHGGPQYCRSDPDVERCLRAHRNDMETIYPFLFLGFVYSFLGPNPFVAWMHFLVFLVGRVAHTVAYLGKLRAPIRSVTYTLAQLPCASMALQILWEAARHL
As to the kind of experiment: Inhibition of mPGES1 in IL-1beta treated human A549 cell microsomal membrane assessed as inhibition of PGE2 formation incubated for 15 mins before addition of PGH2 by RP-HPLC method. Format: microsomes, Microsome.

Assay [1] relates to Radical scavenging activity. As to the kind of experiment: Antioxidant activity assessed as DPPH free radical scavenging activity up to 100 uM after 30 mins by spectrophotometry. It is filed as functional. For orientation: Loss of DPPH colour is used to gauge radical scavenging.
The target of assay [2] is T2, Glucocorticoid receptor (Homo sapiens) (UniProt P04150).
T2 sequence (whole entry): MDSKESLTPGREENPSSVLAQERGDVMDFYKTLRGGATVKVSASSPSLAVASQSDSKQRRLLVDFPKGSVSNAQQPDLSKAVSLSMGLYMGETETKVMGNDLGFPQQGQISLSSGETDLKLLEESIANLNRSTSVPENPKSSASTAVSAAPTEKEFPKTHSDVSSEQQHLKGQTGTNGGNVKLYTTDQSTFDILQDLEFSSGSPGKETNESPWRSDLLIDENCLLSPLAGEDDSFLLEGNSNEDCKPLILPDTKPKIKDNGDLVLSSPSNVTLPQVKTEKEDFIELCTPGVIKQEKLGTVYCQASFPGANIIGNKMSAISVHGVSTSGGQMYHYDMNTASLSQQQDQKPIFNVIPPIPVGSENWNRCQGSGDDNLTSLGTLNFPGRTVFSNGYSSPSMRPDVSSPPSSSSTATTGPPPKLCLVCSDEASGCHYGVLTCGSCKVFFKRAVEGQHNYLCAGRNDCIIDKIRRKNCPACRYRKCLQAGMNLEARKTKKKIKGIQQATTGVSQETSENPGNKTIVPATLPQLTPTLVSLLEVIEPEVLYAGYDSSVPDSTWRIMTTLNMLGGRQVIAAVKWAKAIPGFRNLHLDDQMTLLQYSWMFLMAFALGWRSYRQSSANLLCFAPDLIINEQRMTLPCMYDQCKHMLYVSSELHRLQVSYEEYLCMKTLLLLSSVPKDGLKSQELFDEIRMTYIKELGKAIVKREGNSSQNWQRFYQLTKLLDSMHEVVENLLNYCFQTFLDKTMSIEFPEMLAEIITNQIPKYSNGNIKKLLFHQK
Put plainly: Activation of GR transfected in HEK293 cells at 10 uM after 18 hrs by firefly luciferase reporter gene-based luminescence assay. Format: cell-based.

For assay [3], the target named is T3, Peroxisome proliferator-activated receptor gamma (Homo sapiens) (UniProt P37231).
T3 sequence (whole entry): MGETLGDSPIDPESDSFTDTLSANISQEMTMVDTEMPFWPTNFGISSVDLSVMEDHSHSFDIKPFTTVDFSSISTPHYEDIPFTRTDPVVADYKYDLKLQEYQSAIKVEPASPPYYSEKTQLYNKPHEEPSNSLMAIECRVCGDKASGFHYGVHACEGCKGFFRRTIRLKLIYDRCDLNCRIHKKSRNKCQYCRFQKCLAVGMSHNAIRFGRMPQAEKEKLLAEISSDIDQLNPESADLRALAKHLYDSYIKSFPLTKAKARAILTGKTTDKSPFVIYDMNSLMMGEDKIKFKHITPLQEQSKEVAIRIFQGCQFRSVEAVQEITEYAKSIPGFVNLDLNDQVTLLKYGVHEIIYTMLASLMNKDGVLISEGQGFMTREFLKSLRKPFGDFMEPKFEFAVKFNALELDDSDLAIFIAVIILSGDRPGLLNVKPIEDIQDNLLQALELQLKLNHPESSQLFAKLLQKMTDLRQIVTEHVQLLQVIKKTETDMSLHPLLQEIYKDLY
Put plainly: Activation of PPARgamma transfected in HEK293 cells at 10 uM after 18 hrs by firefly luciferase reporter gene-based luminescence assay. It is filed as cell-based. Background: A reporter such as luciferase makes a cellular process visible.

Assay [4] deals with T4, Prostaglandin G/H synthase 2 (Ovis aries, UniProt P79208).
T4 sequence (P79208 whole entry): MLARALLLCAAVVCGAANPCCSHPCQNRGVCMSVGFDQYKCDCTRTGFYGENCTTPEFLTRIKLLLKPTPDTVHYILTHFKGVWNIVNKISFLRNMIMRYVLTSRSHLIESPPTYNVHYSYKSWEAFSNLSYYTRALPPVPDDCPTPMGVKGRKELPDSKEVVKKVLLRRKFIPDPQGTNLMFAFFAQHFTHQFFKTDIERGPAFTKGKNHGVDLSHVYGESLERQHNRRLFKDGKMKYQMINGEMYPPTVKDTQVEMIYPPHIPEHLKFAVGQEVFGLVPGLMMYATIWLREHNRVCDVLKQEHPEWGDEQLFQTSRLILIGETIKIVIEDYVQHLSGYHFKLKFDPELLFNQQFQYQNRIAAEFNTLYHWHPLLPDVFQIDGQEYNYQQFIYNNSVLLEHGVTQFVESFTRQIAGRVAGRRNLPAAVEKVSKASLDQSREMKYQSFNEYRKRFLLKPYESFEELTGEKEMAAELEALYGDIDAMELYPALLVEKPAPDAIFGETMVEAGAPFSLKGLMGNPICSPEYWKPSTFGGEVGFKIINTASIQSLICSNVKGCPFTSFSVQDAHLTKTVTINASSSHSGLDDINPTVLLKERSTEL
Put plainly: Inhibition of sheep placental COX2 assessed as PGE2 production by enzyme immunoassay.

The nature of assay [5]: Inhibition of NFkappaB activity transfected in HEK293 cells pretreated for 1 hr before 6 hrs of LPS challenge by luciferase reporter gene assay. The settings on record: Homo sapiens.

Active and inactive are the calls of the source. No cut-off for these calls is given here. A value given as a limit tells only on which side of the number the result lay.

As to `C[C@@H]1[C@H](C)[C@@H](c2ccc(O)cc2)O[C@H]1c1ccc(O)cc1`, the half-inhibitory concentration (IC50) (as a rule, the concentration that inhibits the measured activity by half) was over 50 µM on Prostaglandin E synthase, over 50 µM in assay [4] and over 20 µM in assay [5]. The outcome in assay [1], in assay [2] and in assay [3] was inactive.

`C/C=C/c1ccc2c(c1)[C@@H](C)[C@H](c1ccc(O)cc1)O2`: the IC50 at Prostaglandin E synthase is 19.5 µM; in assay [4], over 50 µM; in assay [5] it was over 20 µM. In addition, the outcome in assay [1], in assay [2] and in assay [3] was inactive.

As for `C/C=C/c1ccc2c(c1)[C@H](CO)[C@@H](c1ccc(O)cc1)O2`, the IC50 is 39.5 µM on Prostaglandin E synthase and over 50 µM in assay [4]. For the same compound, the outcome in assay [1], in assay [2] and in assay [3] was inactive.

Regarding `C/C=C/c1ccc2oc(-c3ccc(O)cc3)c(C)c2c1` [RATANIAPHENOL II], the results for the concentration for half-maximal inhibition (IC50) (at Prostaglandin E synthase; in assay [4]) were 11 µM and 1.7 µM, respectively. Also, the result in assay [1], in assay [2] and in assay [3] was inactive.

With `C/C=C/c1ccc2oc(-c3ccc(OC)cc3O)cc2c1` [RATANIAPHENOL I], the 50% inhibitory concentration (IC50) on Prostaglandin E synthase is 13 µM; in assay [4] it was over 50 µM; in assay [5], 14.7 µM. The outcome in assay [2] and in assay [3] was inactive.

Turning to `C[C@@H]1[C@H](C)[C@@H](c2ccc(O)cc2)O[C@@H]1c1ccc(O)cc1`, the half-maximal inhibitory concentration (IC50) (on Prostaglandin E synthase; in assay [4]) was over 50 µM throughout. In addition, the outcome in assay [1], in assay [2] and in assay [3] was inactive.

As to `COc1ccc(-c2cc3cc(CCCO)ccc3o2)c(O)c1`, the IC50 at Prostaglandin E synthase was 42 µM; in assay [4], over 50 µM; in assay [5], 5.9 µM. Further, the result in assay [2] and in assay [3] was inactive.

Take `COc1cc(O)ccc1-c1cc2cc(CCCO)ccc2o1`: the IC50 (on Prostaglandin E synthase; in assay [4]) was over 50 µM throughout. Further, the outcome in assay [2] and in assay [3] was inactive.

On to `C/C=C/c1ccc2oc(-c3ccc(O)cc3OC)cc2c1` [RATANIAPHENOL III], for which the results for the IC50 (at Prostaglandin E synthase; in assay [4]; in assay [5]) were 13.5 µM, 7.6 µM and over 20 µM, respectively. Also, the outcome in assay [2] and in assay [3] was inactive.

On to `C/C=C/c1ccc2oc(-c3ccc(O)cc3O)cc2c1`, for which the values for the IC50 (on Prostaglandin E synthase; in assay [4]) were 7.4 µM and 7.1 µM, respectively. The result in assay [2] and in assay [3] was inactive.

`C/C=C/c1ccc2oc(-c3ccc(O)cc3)cc2c1`: the half-maximal inhibitory concentration (IC50) was 5.3 µM on Prostaglandin E synthase, 2 µM in assay [4] and 1.4 µM in assay [5]. Moreover, the outcome in assay [1], in assay [2] and in assay [3] was inactive.
